Each block holds one compound with its values, some of them ahead of it.
Tests used:
tumor [1] = assay: PET scan imaging, tumor uptake of bifunctional (Sar cage) core compound; type: in vivo; details: mouse, FIG. 5
tumor [2] = assay: Imaging, tumor uptake in non-human primate models; type: in vivo; details: non-human primate (NHP) models, times higher than PSMA-617
Procedure: (§1) Indeed, SGs uptake of ^64Cu-NOTA-UNC-PSMA2 is only 1/10th of ^64Cu-PSMA-617 at 24 h post-injection in the NHP study (FIG. 1, panel B).

[3] = PET scan imaging, salivary gland uptake in non-human primate; type: in vivo; details: 24 hours post injection, relative to 64Cu-PSMA-617, FIG. 1 panel B
Procedure: as §1

PC3-PSMA model = assay: PET scan imaging, tumor uptake in rodents; type: in vivo, mouse
tumor [4] = assay: PET scan imaging of 68Ga-PSMA-617 tumor uptake; type: in vivo; details: rodent models, PET scan image of a mouse, FIG. 2 panel A
[5] = SPECT/CT imaging, SG uptake in rodent models; type: in vivo
[6] = SPECT/CT imaging, gland uptake in a human subject; type: in vivo

SMILES: N#CC1CCCN1C(=O)CNC(=O)c1ccnc2ccc(OCCCN3CCN(C(=O)CCOCCOCCNC(=O)NC45CNCCNCC(NC(=O)NCCOCCOCCC(=O)N6CCN(CCCOc7ccc8nccc(C(=O)NCC(=O)N9CCCC9C#N)c8c7)CC6)(CNCCNC4)CNCCNC5)CC3)cc12 (stereo not shown)
uptake into a tumor (in words) (tumor [1]): Uptake of this compound into a tumor

tumor uptake compared to PSMA-617 (tumor [2]): 2-3 times
SG uptake relative to 64Cu-PSMA-617 [3]: 1/10
tumor uptake (in words) (PC3-PSMA model; mouse, PC3-PSMA model, PET scan image, FIG. 1 panel A): high and persistent tumor uptake
tumor uptake compared to PSMA-617 (PC3-PSMA model; rodent models, times higher than PSMA-617): 2-3 times
SMILES: O=C(O)CC[C@H](NC(=O)N[C@@H](CCCCNC(=O)[C@H](Cc1ccc2ccccc2c1)NC(=O)C1CCC(CNC(=O)CSCCS(=O)(=O)CCOCCn2c(=O)n(CCOCCS(=O)(=O)CCSCC(=O)NC[C@H]3CC[C@H](C(=O)N[C@@H](Cc4ccc5ccccc5c4)C(=O)NCCCC[C@H](NC(=O)N[C@@H](CCC(=O)O)C(=O)O)C(=O)O)CC3)c(=O)n(CCOCCS(=O)(=O)CCSCC(=O)Nc3ccc(CC4CN(CC(=O)O)CCN(CC(=O)O)CCN4CC(=O)O)cc3)c2=O)CC1)C(=O)O)C(=O)O (stereo partly shown) [^64Cu-NOTA-UNC-PSMA2, metal not drawn]
distribution (in words) (PC3-PSMA model; 24 and 48 h post injection, FIG. 1 panel A): persistent as only the tumor demonstrated prominent compound uptake

SMILES: O=C(O)CC[C@H](NC(=O)N[C@@H](CCCCNC(=O)[C@H](Cc1ccc2ccccc2c1)NC(=O)[C@H]1CC[C@H](CNC(=O)CN2CCN(CC(=O)O)CCN(CC(=O)O)CCN(CC(=O)O)CC2)CC1)C(=O)O)C(=O)O.[Ga+3] [^68Ga-PSMA-617]
tumor uptake profile (in words) (tumor [4]): clean tumor uptake profile

SMILES: O=C(O)CC[C@H](NC(=O)N[C@@H](CCCCNC(=O)[C@H](Cc1ccc2ccccc2c1)NC(=O)[C@H]1CC[C@H](CNC(=O)CN2CCN(CC(=O)O)CCN(CC(=O)O)CCN(CC(=O)O)CC2)CC1)C(=O)O)C(=O)O.[Lu+3] [^177Lu-PSMA-617]
SG uptake (in words) [5]: prominent SG uptake
SG uptake (in words) ([6]; SPECT/CT imaging): prominent SG uptake
glands uptake (in words) ([6]; SPECT/CT, 24 hours post injection, FIG. 2 panel B): high glands uptake
